Measured values published in PubChem BioAssay (NCI).
Where “and” joins values, the source holds several entries; their conditions need not be identical. Equal values may be shown once.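 A five-concentration, 48-hour dose response in 96-well plates underlies each endpoint, interpolated linearly between surrounding concentrations. GI50 marks 50% less growth. At the TGI there is no net growth.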

Tests used:
Assay in all cases: growth of human tumour cells (NCI), 48 h
[1] = tested on: 786-0 renal
[2] = tested on: BT-549 breast
[3] = tested on: K-562 leukemia
[4] = tested on: MOLT-4 leukemia
[5] = tested on: SF-295 CNS
[6] = tested on: SF-539 CNS
[7] = tested on: SK-MEL-2 melanoma
[8] = tested on: SK-MEL-5 melanoma
[9] = tested on: SW-620 colon
[10] = tested on: TK-10 renal

| Structure (SMILES) | GI50 [1] | TGI [1] | GI50 [2] [µM] | TGI [2] | GI50 [3] | TGI [3] | GI50 [4] | TGI [4] | GI50 [5] | TGI [5] | GI50 [6] | TGI [6] | GI50 [7] | TGI [7] | GI50 [8] | TGI [8] | GI50 [9] | TGI [9] | GI50 [10] [µM] | TGI [10] |
| --- | --- | --- | --- | --- | --- | --- | --- | --- | --- | --- | --- | --- | --- | --- | --- | --- | --- | --- | --- | --- |
| COc1cc(-c2csc(NC(=O)Nc3cc(C(F)(F)F)cc(C(F)(F)F)c3)n2)cc(OC)c1OC | 3.17 µM | 11.8 µM | 2.38 | 7.84 µM | 1.92 µM | 12 µM | 2.17 µM | 8.99 µM | 1.83 µM | 5.46 µM | 2.28 µM | 6.75 µM | 1.66 µM | 5.85 µM | 1.57 µM | 3.24 µM | 3.21 µM | 14.6 µM | 2.45 | 10.3 µM |
| COc1c2c(c(CC=C(C)C)c3oc(=O)c(-c4ccc(O)cc4)c(O)c13)OC(C)(C)C=C2 | – | 71.3 µM | – | > 100 µM | – | > 100 µM | – | 91 µM | – | > 100 µM | – | 32.8 µM | – | 52.8 µM | – | 25.8 µM | – | > 100 µM | – | > 100 µM |
| NC(=S)N/N=C/c1ccc(O)cn1 | 9.37 µM and 2.96 µM | 46 µM and > 408 µM | – | > 670 µM | 12.3 µM and 7.25 µM | 55.2 µM and 439 µM | 6.5 µM and 3.19 µM and 1.36 µM | – | 33.7 µM and 31.7 µM | 113 µM and 111 µM | 4.27 µM and 2.77 µM | 23.6 µM and 10.9 µM and 17.2 µM | 12.5 µM and 6.35 µM and 57.8 µM | – | 11.3 µM and 8.06 µM | – | 27.4 µM and 13.2 µM | > 1500 µM | – | > 1390 µM |
| CC1(C)CCC[C@]2(C)c3cc(O)ccc3CC[C@@H]12 | 27.3 µM | 79.7 µM | 19.4 | 33.5 µM | 10.9 µM | 29.5 µM | 11.7 µM | 67.3 µM | 20.6 µM | 44.6 µM | 18.3 µM | 33.1 µM | 20.1 µM | 43 µM | 11.3 µM | 23.4 µM | 13.8 µM | 29 µM | 18.2 | 33.7 µM |
| Clc1cccc(N2CCN(CCN3CCc4c([nH]c5ccccc45)C3c3cccnc3)CC2)c1 (configuration not stated) | – | > 73.5 µM | – | > 100 µM | – | > 65.4 µM | – | > 100 µM | – | > 100 µM | – | 62.9 µM | – | > 100 µM | – | > 100 µM | – | > 100 µM | – | > 100 µM |
| N#C/C(=C\Nc1ccccn1)C(=O)c1ccco1 | – | > 100 µM | – | > 100 µM | – | > 100 µM | – | > 100 µM | – | > 100 µM | – | > 100 µM | – | > 100 µM | – | > 100 µM | – | > 100 µM | – | > 100 µM |
| Clc1ccc(C(c2ccc(Cl)cc2)N2CCNCC2)cc1 | – | 3.17 µM | – | 38.3 µM | – | 3.76 µM | – | 5 µM | – | 5.74 µM | – | 3.02 µM | – | 3.63 µM | – | 3.64 µM | – | 4.96 µM | – | 3.74 µM |
| CC(=O)C1COC(O)C1C (configuration not stated) | – | 49.8 µM | – | > 100 µM | – | > 100 µM | – | 99.2 µM | – | 71.9 µM | – | 45.4 µM | – | 29.1 µM | – | 29.7 µM | – | 44.2 µM | – | > 100 µM |
| O=C1C(Cl)=C(Nc2cccc(O)c2)C(=O)N1Cc1ccc(Cl)cc1 | 1.63 µM | 28.1 µM | 2.54 | 16.6 µM | 1.36 µM | 4.52 µM | 1.35 µM | > 100 µM | 2.68 µM | 18.5 µM | 2.63 µM | 16.6 µM | 1.83 µM | 9.36 µM | 5.69 µM | 21.1 µM | 2.56 µM | 24.8 µM | 5.86 | 19.8 µM |
| CCOC(=O)NC1=C(N2CC2)C(=O)C(NC(=O)OCC)=C(N2CC2)C1=O | 4.02 µM and 1.78 µM | 25 µM and 18.4 µM and 33.2 µM | – | 25 µM | 6.13 µM | 20.8 µM and 38.3 µM and 17 µM | 3.25 µM | 12.6 µM and 11 µM | 1.86 µM | 25 µM and 23.3 µM and 31.4 µM | 1.57 µM | 9.51 µM and 9.15 µM and 27.5 µM | 5.09 µM and 7.71 µM | 15.2 µM and 14.4 µM and 16.1 µM | 4.7 µM | 15 µM and 9.97 µM and 7.95 µM | 5.99 µM and 5.69 µM | 24.6 µM and 26.1 µM and 19.2 µM | > 25 | > 25 µM and 65.1 µM |
| O=c1oc(-c2ccccc2)cc2cccc(O)c12 | 28.7 µM | > 76.9 µM | 17.5 | 59.1 µM | > 67.3 µM | > 100 µM | 66.3 µM | > 100 µM | 28.3 µM | > 83.9 µM | 0.927 µM | 5.21 µM | > 100 µM | > 100 µM | 24 µM | > 100 µM | 58 µM | > 100 µM | 9.45 | 39.8 µM |
| CN1C(=O)C(=Cc2cn(Cc3ccccc3)c3ccccc23)C(=O)N(C)C1=O | 57.7 µM | > 100 µM | 56.5 | > 100 µM | 5.08 µM | > 100 µM | 68.3 µM | > 100 µM | 0.732 µM | > 100 µM | 47.3 µM | > 100 µM | – | > 67.6 µM | 25.7 µM | > 100 µM | > 92.4 µM | > 100 µM | 4.28 | 56.5 µM |
| Oc1ccc2ccccc2c1C1NN=C(c2ccccc2)S1 (configuration not stated) | 0.424 µM | > 34.6 µM | 0.858 | 28.9 µM | 0.504 µM | > 100 µM | 0.467 µM | > 56.9 µM | 0.475 µM | 62.2 µM | 0.361 µM | 16 µM | 0.41 µM | 14.9 µM | 0.342 µM | 2 µM | 0.806 µM | > 100 µM | 0.559 | 38.2 µM |
| COc1ccc([I+]c2ccccc2)cc1 | 16.4 µM | > 100 µM | 4.12 | > 78.8 µM | 1.45 µM | > 100 µM | 7.59 µM | > 100 µM | 7.17 µM | 78.2 µM | 6.77 µM | > 100 µM | 51.4 µM | > 100 µM | 2.61 µM | 11.5 µM | 3.37 µM | > 100 µM | 17.4 | > 100 µM |
| OC(C1CO1)C(O)C1CO1 (configuration not stated) | 18.7 µM | 48.5 µM and 139 µM | 29.5 | 84.7 µM and 299 µM | 62.5 µM | 150 µM | 1.95 µM | 103 µM and 239 µM | 11.9 µM and 1.59 µM | 123 µM and 126 µM | – | 106 µM and 128 µM | 137 µM | 116 µM and 345 µM | 43.9 µM | 85.6 µM and 164 µM | 52.4 µM and 93 µM | 150 µM and 458 µM | 182 | 150 µM and 404 µM |
